Assay results published in patent US20260193271A1, “PAN-KRAS INHIBITOR COMPOUND” (ADLAI NORTYE BIOPHARMA CO., LTD., priority 2022, published 2026).

Tested on: AsPC-1 (G12D)
Assay: In vitro cell proliferation inhibition test (CellTiter-Glo), AsPC-1
Assay type: cell-based
Conditions: AsPC-1 pancreas cell line, KRAS (p.G12D), 72 h co-incubation
Text: Test Example 1: In Vitro Cell Proliferation Inhibition Test
Due to the diversity of RAS mutations and in order to evaluate the activity of compounds in different RAS mutation cell lines, we selected KRAS^WT, KRAS^G12C, KRAS^G12D, KRAS^G12V and BRAF mutation cell lines (see the table below) for in vitro activity evaluation and screening of compounds.
Protocol: CellTiter-Glo® Cell Luminescent Viability Assay (Promega)
According to the doubling time of different cell lines, different numbers of cells (1000-5000 cells/well) were seeded in 96-well plates containing 180 μl of corresponding culture medium and cultured overnight in a cell culture incubator at 37° C. with 5% CO2. On the second day, the test compound was pre-diluted 3-fold with culture medium, with the highest concentration being 100 μM, for a total of 10 concentration gradients; then 20 μl of culture medium containing different concentrations of the compound was added to the cells in the 96-well plate to ensure that the final concentration of the compound was up to 10 μM, with 10 concentration gradients of 3-fold dilution. After the cells and compounds were co-incubated for 72 h, the 96-well plate was removed from the incubator and equilibrated at room temperature for 30 min. Then, 25 μl of CellTiter-Glo® Reagent was added to each well and mixed thoroughly. The mixture was incubated at room temperature for 10 min, and then 100 μl of the sample was transferred to a white 96-well plate (OptiPlate™-96, PerkinElmer). The […] signal value was read using a multi-function microplate reader (SpectraMax® i3x, Molecular devices). The signal values were then standardized, and the curve was fitted using a four-parameter regression equation to calculate the half maximal inhibitory concentration (IC50) of the compound on the cell line.

| Compound | IC50 |
| --- | --- |
| (1S,2S)-N-((6^3S,4S,Z)-1^1-ethyl-1^2-(2-((S)-1-methoxyethyl)-5-(5-(1-methylazetidin-3-yl)isoxazol-3-yl)pyridin-3-yl)-10,10-dimethyl-5,7-dioxo-6^1,6^2,6^3,6^4,6^5,6^6-hexahydro-1^1H-8-oxa-2(4,2)-thiazola-1(5,3)-indola-6(1,3)-pyridazinacycloundecaphane-4-yl)-2-methylcyclopropane-1-carboxamide [Compound 31′] | 53 nM |
| CCn1c(-c2cc(-c3cc(C4(C)CN(C)C4)on3)cnc2C(C)OC)c2c3cc(ccc31)-c1csc(n1)CC(NC(=O)C1C(C)C1C)C(=O)N1CCCC(N1)C(=O)OCC(C)(C)C2 [Compound 34′, (1r,2R,3S)-N-((6^3S,4S,Z)-1^2-(5-(5-(1,3-dimethylazetidin-3-yl)isoxazol-3-yl)-2-((S)-1-methoxyethyl)pyridin-3-yl)-1^1-ethyl-10,10-dimethyl-5,7-dioxo-6^1,6^2,6^3,6^4,6^5,6^6-hexahydro-1^1H-8-oxa-2(4,2)-thiazola-1(5,3)-indola-6(1,3)-pyridazinacycloundecaphane-4-yl)-2,3-dimethylcyclopropane-1-carboxamide] | 116 nM |
| CCn1c(-c2cc(-c3nnc(C)n3C)cnc2C(C)OC)c2c3cc(ccc31)-c1csc(n1)CC(NC(=O)C1CC1C)C(=O)N1CCCC(N1)C(=O)OCC(C)(C)C2 [Compound 20′, (1S,2S)-N-((6^3S,4S,Z)-1^2-(5-(4,5-dimethyl-4H-1,2,4-triazol-3-yl)-2-((S)-1-methoxyethyl)pyridin-3-yl)-1^1-ethyl-10,10-dimethyl-5,7-dioxo-6^1,6^2,6^3,6^4,6^5,6^6-hexahydro-1^1H-8-oxa-2(4,2)-thiazola-1(5,3)-indola-6(1,3)-pyridazinacycloundecaphane-4-yl)-2-methylcyclopropane-1-carboxamide] | 87 nM |
| CCn1c(-c2cc(-c3cc(C4COCCN4C)on3)cnc2C(C)OC)c2c3cc(ccc31)-c1csc(n1)CC(NC(=O)C1C(C)C1C)C(=O)N1CCCC(N1)C(=O)OCC(C)(C)C2 [Compound 32′, (1r,2R,3S)-N-((6^3S,4S,Z)-1^1-ethyl-1^2-(2-((S)-1-methoxyethyl)-5-(5-((S)-4-methylmorpholin-3-yl)isoxazol-3-yl)pyridin-3-yl)-10,10-dimethyl-5,7-dioxo-6^1,6^2,6^3,6^4,6^5,6^6-hexahydro-1^1H-8-oxa-2(4,2)-thiazola-1(5,3)-indola-6(1,3)-pyridazinacycloundecaphane-4-yl)-2,3-dimethylcyclopropane-1-carboxamide] | 33 nM |
| CCn1c(-c2cc(-c3ccc(CN4CCOCC4)nc3)cnc2C(C)OC)c2c3cc(ccc31)-c1csc(n1)CC(NC(=O)C1CC1C)C(=O)N1CCCC(N1)C(=O)OCC(C)(C)C2 [Compound 5′, (1S,2S)-N-((6^3S,4S,Z)-1^1-ethyl-1^2-(6-((S)-1-methoxyethyl)-6′-(morpholinomethyl)-[3,3′-bipyridin]-5-yl)-10,10-dimethyl-5,7-dioxo-6^1,6^2,6^3,6^4,6^5,6^6-hexahydro-1^1H-8-oxa-2(4,2)-thiazola-1(5,3)-indola-6(1,3)-pyridazinacycloundecaphane-4-yl)-2-methylcyclopropane-1-carboxamide] | 99 nM |
| CCn1c(-c2cc(-c3cc(C4CN(C)CCO4)on3)cnc2C(C)OC)c2c3cc(ccc31)-c1csc(n1)CC(NC(=O)C1C(C)C1C)C(=O)N1CCCC(N1)C(=O)OCC(C)(C)C2 [Compound 26′, (1r,2R,3S)-N-((6^3S,4S,Z)-1^1-ethyl-1^2-(2-((S)-1-methoxyethyl)-5-(5-((R)-4-methylmorpholin-2-yl)isoxazol-3-yl)pyridin-3-yl)-10,10-dimethyl-5,7-dioxo-6^1,6^2,6^3,6^4,6^5,6^6-hexahydro-1^1H-8-oxa-2(4,2)-thiazola-1(5,3)-indola-6(1,3)-pyridazinacycloundecaphane-4-yl)-2,3-dimethylcyclopropane-1-carboxamide] | 13 nM |
| CCn1c(-c2cc(-c3ccc(CN4CCOCC4)cc3)cnc2C(C)OC)c2c3cc(ccc31)-c1csc(n1)CC(NC(=O)C1C(C)C1C)C(=O)N1CCCC(N1)C(=O)OCC(C)(C)C2 [Compound 1′, (1r,2R,3S)-N-((6^3S,4S,Z)-1^1-ethyl-1^2-(2-((S)-1-methoxyethyl)-5-(4-(morpholinomethyl)phenyl)pyridin-3-yl)-10,10-dimethyl-5,7-dioxo-6^1,6^2,6^3,6^4,6^5,6^6-hexahydro-1^1H-8-oxa-2(4,2)-thiazola-1(5,3)-indola-6(1,3)-pyridazinacycloundecaphane-4-yl)-2,3-dimethylcyclopropane-1-carboxamide] | 4770 nM |
| CCn1c(-c2cc(-c3ccc4c(c3)CN(C)CC4)cnc2C(C)OC)c2c3cc(ccc31)-c1csc(n1)CC(NC(=O)C1CC1C)C(=O)N1CCCC(N1)C(=O)OCC(C)(C)C2 [Compound 10′, (1S,2S)-N-((6^3S,4S,Z)-1^1-ethyl-1^2-(2-((S)-1-methoxyethyl)-5-(2-methyl-1,2,3,4-tetrahydroisoquinolin-7-yl)pyridin-3-yl)-10,10-dimethyl-5,7-dioxo-6^1,6^2,6^3,6^4,6^5,6^6-hexahydro-1^1H-8-oxa-2(4,2)-thiazola-1(5,3)-indola-6(1,3)-pyridazinacycloundecaphane-4-yl)-2-methylcyclopropane-1-carboxamide] | 1800 nM |
| CCn1c(-c2cc(-c3ccc(CN4CCN(C)CC4)cc3)cnc2[C@H](C)OC)c2c3cc(ccc31)-c1csc(n1)C[C@H](NC(=O)[C@H]1C[C@@H]1C)C(=O)N1CCC[C@H](N1)C(=O)OCC(C)(C)C2 [Compound 8′, (1S,2S)-N-((6^3S,4S,Z)-1^1-ethyl-1^2-(2-((S)-1-methoxyethyl)-5-(4-((4-methylpiperazin-1-yl)methyl)phenyl)pyridin-3-yl)-10,10-dimethyl-5,7-dioxo-6^1,6^2,6^3,6^4,6^5,6^6-hexahydro-1^1H-8-oxa-2(4,2)-thiazola-1(5,3)-indola-6(1,3)-pyridazinacycloundecaphane-4-yl)-2-methylcyclopropane-1-carboxamide] | 236 nM |

More lines, now with the values ahead:

| IC50 | Compound |
| --- | --- |
| 60 nM | (1S,2S)-N-((6^3S,4S,Z)-1^1-ethyl-1^2-(2-((S)-1-methoxyethyl)-5-(5-(1-methylpiperidin-4-yl)isoxazol-3-yl)pyridin-3-yl)-10,10-dimethyl-5,7-dioxo-6^1,6^2,6^3,6^4,6^5,6^6-hexahydro-1^1H-8-oxa-2(4,2)-thiazola-1(5,3)-indola-6(1,3)-pyridazinacycloundecaphane-4-yl)-2-methylcyclopropane-1-carboxamide [Compound 30′] |
| 1020 nM | (1S,2S)-N-((6^3S,4S,Z)-1^1-ethyl-1^2-(2-((S)-1-methoxyethyl)-5-(1-(2-morpholinoethyl)-1H-pyrazol-4-yl)pyridin-3-yl)-10,10-dimethyl-5,7-dioxo-6^1,6^2,6^3,6^4,6^5,6^6-hexahydro-1^1H-8-oxa-2(4,2)-thiazola-1(5,3)-indola-6(1,3)-pyridazinacycloundecaphane-4-yl)-2-methylcyclopropane-1-carboxamide [Compound 15′] |
| 646 nM | CCn1c(-c2cc(-c3cccc(CN(C)C)c3)cnc2[C@H](C)OC)c2c3cc(ccc31)-c1csc(n1)C[C@H](NC(=O)[C@H]1[C@H](C)[C@@H]1C)C(=O)N1CCC[C@H](N1)C(=O)OCC(C)(C)C2 [Compound 4′, (1r,2R,3S)-N-((6^3S,4S,Z)-1^2-(5-(3-((dimethylamino)methyl)phenyl)-2-((S)-1-methoxyethyl)pyridin-3-yl)-1^1-ethyl-10,10-dimethyl-5,7-dioxo-6^1,6^2,6^3,6^4,6^5,6^6-hexahydro-1^1H-8-oxa-2(4,2)-thiazola-1(5,3)-indola-6(1,3)-pyridazinacycloundecaphane-4-yl)-2,3-dimethylcyclopropane-1-carboxamide] |
| > 10000 nM | CCn1c(-c2cc(-c3ccc(CN4CCC(F)(F)CC4)cc3)cnc2C(C)OC)c2c3cc(ccc31)-c1csc(n1)CC(NC(=O)C1CC1C)C(=O)N1CCCC(N1)C(=O)OCC(C)(C)C2 [Compound 7′, (1S,2S)-N-((6^3S,4S,Z)-1^2-(5-(4-((4,4-difluoropiperidin-1-yl)methyl)phenyl)-2-((S)-1-methoxyethyl)pyridin-3-yl)-1^1-ethyl-10,10-dimethyl-5,7-dioxo-6^1,6^2,6^3,6^4,6^5,6^6-hexahydro-1^1H-8-oxa-2(4,2)-thiazola-1(5,3)-indola-6(1,3)-pyridazinacycloundecaphane-4-yl)-2-methylcyclopropane-1-carboxamide] |
| 32 nM | CCn1c(-c2cc(-c3cc(C4COCCN4C)on3)cnc2C(C)OC)c2c3cc(ccc31)-c1csc(n1)CC(NC(=O)C1C(C)C1C)C(=O)N1CCCC(N1)C(=O)OCC(C)(C)C2 [Compound 33′, (1r,2R,3S)-N-((6^3S,4S,Z)-1^1-ethyl-1^2-(2-((S)-1-methoxyethyl)-5-(5-((R)-4-methylmorpholin-3-yl)isoxazol-3-yl)pyridin-3-yl)-10,10-dimethyl-5,7-dioxo-6^1,6^2,6^3,6^4,6^5,6^6-hexahydro-1^1H-8-oxa-2(4,2)-thiazola-1(5,3)-indola-6(1,3)-pyridazinacycloundecaphane-4-yl)-2,3-dimethylcyclopropane-1-carboxamide] |
